Data taken from patent publication US20230049952A1, “METHODS AND COMPOUNDS FOR RESTORING MUTANT P53 FUNCTION” (PMV Pharmaceuticals, Inc., priority 2020, published 2023).
Where two headings read alike, the source gives them in different places.

What was measured:
human hepatocytes = assay: cell viability (MTS) after CYP induction treatment of human hepatocytes; conditions: after CYP1A2 induction treatment
Description: Cell Viability Assay: After the CYP induction treatment and enzyme activity assay, the cells were used for a cell viability assay. The viability of cells, expressed as the percentage of MTS absorbance relative to vehicle control, was measured as described above.

p53 in SJSA1 = assay: p53 (DO-1) Western blot; assay type: cell-based, human; conditions: SJSA1 + RG7388 50 nM, 24 hr
Description: (§1) Protein samples were quantified using BCA.
(§2) Western blot: For each cell line, 10 μg of total protein were run on a 4-12% Bis-Tris precast gel. The gel was transferred to a nitrocellulose membrane. The membrane was blocked for 1 hour using the Odyssey TBS blocking solution. Membranes were incubated overnight in p53 (p53, DO-1) and actin (beta-actin) primary antibodies. The next day, blots were washed and incubated in either goat anti-mouse for p53 or goat-anti-rabbit for actin secondaries antibodies. Blots were then washed and imaged using an Odyssey CLx imaging system. Bands were quantified using Image Studio software and normalized to the actin control. The p53 or actin levels were then normalized to the NUGC3 band and graphed using Prism.
(§3) Since p53 protein pools are strongly autoregulated by degradation by the transcriptional target MDM2, pools of p53 accumulate to high levels in cells with mutant p53.

p53 in HCT116 = assay: p53 (DO-1) Western blot; assay type: cell-based, human; conditions: HCT116 + RG7388 50 nM, 24 hr
Description: as §1, §2, §3

OATP1B3 = molecular target: T1, OATP1B3 (Homo sapiens, UniProt Q9NPD5); assay: uptake transporter inhibition assessment, transfected HEK293; conditions: inhibitor 10 μM
T1 sequence (Q9NPD5 1-702): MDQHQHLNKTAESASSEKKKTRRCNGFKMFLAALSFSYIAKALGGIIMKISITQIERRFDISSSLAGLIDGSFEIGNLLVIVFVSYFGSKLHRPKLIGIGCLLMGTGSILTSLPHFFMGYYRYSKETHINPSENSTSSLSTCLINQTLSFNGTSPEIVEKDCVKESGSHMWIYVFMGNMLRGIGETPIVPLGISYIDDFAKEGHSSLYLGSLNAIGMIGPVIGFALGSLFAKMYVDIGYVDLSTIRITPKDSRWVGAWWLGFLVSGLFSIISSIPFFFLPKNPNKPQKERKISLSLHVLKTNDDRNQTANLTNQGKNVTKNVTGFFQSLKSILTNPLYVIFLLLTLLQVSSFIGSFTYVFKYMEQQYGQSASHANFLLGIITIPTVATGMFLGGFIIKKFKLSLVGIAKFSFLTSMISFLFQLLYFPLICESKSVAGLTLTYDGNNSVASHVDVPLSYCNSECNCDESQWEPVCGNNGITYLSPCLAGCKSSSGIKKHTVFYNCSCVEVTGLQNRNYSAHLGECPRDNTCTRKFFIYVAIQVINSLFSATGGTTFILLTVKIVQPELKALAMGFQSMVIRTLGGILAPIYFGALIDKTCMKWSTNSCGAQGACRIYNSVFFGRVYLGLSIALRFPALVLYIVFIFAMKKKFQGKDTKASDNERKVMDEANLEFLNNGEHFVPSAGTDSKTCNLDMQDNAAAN

OATP1B1 = molecular target: T2, OATP1B1 (Homo sapiens, UniProt Q9Y6L6); assay: as above; conditions: inhibitor 10 μM
T2 sequence (Q9Y6L6 1-691): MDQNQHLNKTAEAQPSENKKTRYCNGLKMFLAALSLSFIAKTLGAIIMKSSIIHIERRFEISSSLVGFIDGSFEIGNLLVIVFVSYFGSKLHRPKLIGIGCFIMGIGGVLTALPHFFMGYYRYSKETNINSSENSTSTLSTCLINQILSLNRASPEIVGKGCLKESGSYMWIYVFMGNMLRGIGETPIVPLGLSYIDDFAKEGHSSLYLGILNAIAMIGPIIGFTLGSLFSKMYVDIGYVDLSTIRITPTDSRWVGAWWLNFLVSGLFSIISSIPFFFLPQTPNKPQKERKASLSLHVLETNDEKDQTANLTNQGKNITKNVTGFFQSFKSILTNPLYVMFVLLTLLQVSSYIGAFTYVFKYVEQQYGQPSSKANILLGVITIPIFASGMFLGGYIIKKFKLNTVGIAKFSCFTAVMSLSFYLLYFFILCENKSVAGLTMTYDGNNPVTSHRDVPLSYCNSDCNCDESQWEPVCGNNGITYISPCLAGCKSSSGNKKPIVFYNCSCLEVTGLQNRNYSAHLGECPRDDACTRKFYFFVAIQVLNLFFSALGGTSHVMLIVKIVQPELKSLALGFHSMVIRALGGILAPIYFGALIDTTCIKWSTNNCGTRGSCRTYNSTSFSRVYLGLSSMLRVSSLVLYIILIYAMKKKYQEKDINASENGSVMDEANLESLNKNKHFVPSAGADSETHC

[1] = test system: CYP enzymes in human liver microsomes; conditions: HLM, probe S-Mephenytoin 25 μM
Description: Pooled HLM were stored at −80° C. until use. […] The reaction was initiated by adding NADPH, followed by incubation at 37° C.
Corrected CLint=Raw CLint−Negative Control CLint; Δ CLint=CLHint(TA+NADPH−Inhibitor)−CLint (TA+NADPH+Inhibitor).

[2] = +NADPH −Inhibitor, Maximum Metabolism
[3] = −NADPH −Inhibitor, Negative Control

`COc1ccc2[nH]c([S+]([O-])Cc3ncc(C)c(OC)c3C)nc2c1` (stereo not drawn) [OME] was tested, and the “Formazan Absorbance (n = 3) Mean” value (human hepatocytes; Donor 1, 50 μM) was 0.494, the “Formazan Absorbance (n = 3) Mean” value (human hepatocytes; Donor 2, 50 μM) was 0.800 and the “Formazan Absorbance (n = 3) Mean” value (human hepatocytes; Donor 3, 50 μM) was 0.433.

In the case of `COc1cc(C(=O)O)ccc1NC(=O)[C@@H]1N[C@@H](CC(C)(C)C)[C@](C#N)(c2ccc(Cl)cc2F)[C@H]1c1cccc(Cl)c1F` [RG7388], the DO1/Actin (p53 in SJSA1) is reported as 0.008, the DO1 band density (p53 in SJSA1) is reported as 94.5 and the “normalized DO1/Actin” value (p53 in SJSA1; normalized to NUGC3) is reported as 0.068. The DO1/Actin (p53 in HCT116) was 0.065, the DO1 band density (p53 in HCT116) was 1300 and the “normalized DO1/Actin” value (p53 in HCT116; normalized to NUGC3) was 0.524.

For `CO[C@H]1/C=C/O[C@@]2(C)Oc3c(C)c([O-])c4c(O)c(cc(O)c4c3C2=O)NC(=O)/C(C)=C\C=C\[C@H](C)[C@H](O)[C@@H](C)[C@@H](O)[C@@H](C)[C@H](OC(C)=O)[C@@H]1C.[Na+]` [Rifamycin SV], the “Inhibition Potential Classification” value (OATP1B3) was “Positive (Percent inhibition≥50%: Positive)”, the “Percent Inhibition” value (OATP1B3; probe atorvastatin (0.1 μM per TABLE 176)) was 94.8 and the “Influx Rate AVG” value (OATP1B3; probe atorvastatin (0.1 μM per TABLE 176), OATP1B3-transfected HEK cells) was 0.991 pmol/minute/mg protein. For the same molecule, the “Influx Rate AVG” value (OATP1B3; probe atorvastatin (0.1 μM per TABLE 176), Vector Control cells) was 0.769 pmol/minute/mg protein, the “Inhibition Potential Classification” value (OATP1B1) was “Positive (Percent inhibition≥50%: Positive)” and the “Percent Inhibition” value (OATP1B1; probe Atorvastatin ([…])) was 94.8. The “Influx Rate AVG” value (OATP1B1; probe Atorvastatin ([…]), OATP1B1-transfected HEK cells) was 1.12 pmol/minute/mg protein and the “Influx Rate AVG” value (OATP1B1; probe Atorvastatin ([…]), Vector Control cells) was 0.769 pmol/minute/mg protein.

`CC[C@@]1(c2ccccc2)NC(=O)N(C)C1=O` [S-Mephenytoin] was tested, and the “Formation Rate (4′-OH Mephenytoin)” value [1, 2] was 39.8 pmol/min/mg protein, the “Measured Metabolite (4′-OH Mephenytoin)” value [1, 2] was 0.398 µM and the “Formation Rate (4′-OH Mephenytoin)” value [1, 3] was 0 pmol/min/mg protein. The “Measured Metabolite (4′-OH Mephenytoin)” value [1, 3] was 0 µM.
